CC(C)[C@H](N)C(=O)O
solubility (mole fraction)
Details | 283.15 K | 288.15 K | 293.15 K | 298.15 K | 303.15 K | 308.15 K | 313.15 K | 318.15 K | 323.15 K | 328.15 K
in 1,4-dioxane | – | 6.7e-05 | 8.7e-05 | 0.000121 | 0.000169 | 0.000223 | 0.000281 | 0.000346 | 0.00041 | 0.000486
in acetone | 3.1e-05 | 4.1e-05 | 5.6e-05 | 7.5e-05 | 0.0001 | 0.000132 | 0.000171 | 0.000216 | 0.000256 | –
in acetonitrile | 2.4e-05 | 3.3e-05 | 4.3e-05 | 5.6e-05 | 6.8e-05 | 8.2e-05 | 9.9e-05 | 0.000116 | 0.000136 | –
in ethanol | 0.000254 | 0.00026 | 0.000272 | 0.000286 | 0.000303 | 0.00032 | 0.000338 | 0.000357 | 0.00038 | –
in ethyl acetate | 3.1e-05 | 3.7e-05 | 4.6e-05 | 5.7e-05 | 7.1e-05 | 8.4e-05 | 0.0001 | 0.000119 | 0.000136 | –
in isobutanol | 5e-05 | 6.1e-05 | 7.8e-05 | 9.9e-05 | 0.000123 | 0.000151 | 0.000185 | 0.000218 | 0.000258 | –
in isopropanol | 1.6e-05 | 1.8e-05 | 2.5e-05 | 3.2e-05 | 4.2e-05 | 5.6e-05 | 7e-05 | 9e-05 | 0.00011 | –
in methanol | 0.000585 | 0.000601 | 0.000624 | 0.000652 | 0.000684 | 0.000717 | 0.000754 | 0.000792 | 0.000834 | –
in methyl acetate | 3e-05 | 3.2e-05 | 3.4e-05 | 3.6e-05 | 4.2e-05 | 5.1e-05 | 6.7e-05 | 8.8e-05 | 0.000115 | –
in n-butanol | 2.4e-05 | 3.1e-05 | 4.7e-05 | 6.9e-05 | 9.1e-05 | 0.000115 | 0.000139 | 0.00017 | 0.000203 | –
in n-propanol | 1.5e-05 | 1.9e-05 | 2.3e-05 | 3e-05 | 3.7e-05 | 4.6e-05 | 5.5e-05 | 6.4e-05 | 7.7e-05 | –
in water | 0.00915 | 0.00921 | 0.00937 | 0.00954 | 0.00976 | 0.00998 | 0.0102 | 0.0105 | 0.0108 | –
